Measurements reported in ChEMBL document CHEMBL1158870, “Antitumor agents. 180. Chemical Studies and cytotoxic evaluation of cumingianosides and cumindysoside A, antileukemic triterpene glucosides with a 14,18-cycloapotirucallane skeleton” (1997).

Legend:
[1] = test system: HT-29; experiment: Cytotoxicity against human HT29 cells by SRB assay; assay type: functional
[2] = test system: M14; experiment: Cytotoxicity against human M14 cells by SRB assay; assay type: functional
[3] = test system: SW-620; experiment: Cytotoxicity against human SW620 cells by SRB assay; assay type: functional
[4] = test system: PC-3; experiment: Cytotoxicity against human PC3 cells by SRB assay; assay type: functional
[5] = test system: A549; experiment: Cytotoxicity against human A549 cells by SRB assay; assay type: functional
[6] = Cytotoxicity against human MCF7/ADR cells by SRB assay; assay type: functional; conditions: NCI/ADR-RES
[7] = test system: EKVX; experiment: Cytotoxicity against human EKVX cells by SRB assay; assay type: functional
[8] = test system: SF-268; experiment: Cytotoxicity against human SF268 cells by SRB assay; assay type: functional
[9] = test system: MCF7; experiment: Cytotoxicity against human MCF7 cells by SRB assay; assay type: functional
[10] = test system: MOLT-4; experiment: Cytotoxicity against human MOLT4 cells by SRB assay; assay type: functional
[11] = Cytotoxicity against human melanoma cells by SRB assay; assay type: functional; conditions: Melanoma cell
[12] = test system: T47D; experiment: Cytotoxicity against human T47D cells by SRB assay; assay type: functional
[13] = Cytotoxicity against human renal cancer cells by SRB assay; assay type: functional; conditions: Cancer cell lines
[14] = test system: Malme-3M; experiment: Cytotoxicity against human MALME-3M cells by SRB assay; assay type: functional
[15] = test system: NCI-H322M; experiment: Cytotoxicity against human NCI-H322M cells by SRB assay; assay type: functional
[16] = test system: MDA-MB-231; experiment: Cytotoxicity against human MDA-MB-231 cells by SRB assay; assay type: functional
[17] = test system: OVCAR-8; experiment: Cytotoxicity against human OVCAR8 cells by SRB assay; assay type: functional
[18] = test system: U-251; experiment: Cytotoxicity against human U251 cells by SRB assay; assay type: functional
[19] = test system: NSCLC; experiment: Cytotoxicity against human NSCLC cells by SRB assay; assay type: functional
[20] = test system: OVCAR-5; experiment: Cytotoxicity against human OVCAR5 cells by SRB assay; assay type: functional
[21] = test system: SR; experiment: Cytotoxicity against human SR cells by SRB assay; assay type: functional
[22] = Cytotoxicity against human 786-O cells by SRB assay; assay type: functional; conditions: 786-0
[23] = test system: NCI-H23; experiment: Cytotoxicity against human NCI-H23 cells by SRB assay; assay type: functional
[24] = test system: SK-OV-3; experiment: Cytotoxicity against human SKOV3 cells by SRB assay; assay type: functional
[25] = test system: UO-31; experiment: Cytotoxicity against human UO31 cells by SRB assay; assay type: functional
[26] = test system: HOP-92; experiment: Cytotoxicity against human HOP92 cells by SRB assay; assay type: functional
[27] = Cytotoxicity against human ovarian cancer cells by SRB assay; assay type: functional; conditions: Cancer cell lines
[28] = test system: CAKI-1; experiment: Cytotoxicity against human Caki1 cells by SRB assay; assay type: functional
[29] = test system: SNB-19; experiment: Cytotoxicity against human SNB19 cells by SRB assay; assay type: functional
[30] = test system: NCI-H460; experiment: Cytotoxicity against human NCI-H460 cells by SRB assay; assay type: functional
[31] = test system: BT-549; experiment: Cytotoxicity against human BT549 cells by SRB assay; assay type: functional
[32] = test system: LOX IMVI; experiment: Cytotoxicity against human LOXIMVI cells by SRB assay; assay type: functional
[33] = test system: HOP-62; experiment: Cytotoxicity against human HOP62 cells by SRB assay; assay type: functional
[34] = test system: KM12; experiment: Cytotoxicity against human KM12 cells by SRB assay; assay type: functional
[35] = test system: NCI-H226; experiment: Cytotoxicity against human NCI-H226 cells by SRB assay; assay type: functional
[36] = test system: SK-MEL-28; experiment: Cytotoxicity against human SK-MEL-28 cells by SRB assay; assay type: functional
[37] = test system: COLO 205; experiment: Cytotoxicity against human COLO205 cells by SRB assay; assay type: functional
[38] = test system: CCRF-CEM; experiment: Cytotoxicity against human CCRF-CEM cells by SRB assay; assay type: functional
[39] = test system: DU-145; experiment: Cytotoxicity against human DU145 cells by SRB assay; assay type: functional
[40] = test system: UACC-62; experiment: Cytotoxicity against human UACC62 cells by SRB assay; assay type: functional
[41] = test system: HCT-15; experiment: Cytotoxicity against human HCT15 cells by SRB assay; assay type: functional
[42] = test system: SK-MEL-5; experiment: Cytotoxicity against human SK-MEL-5 cells by SRB assay; assay type: functional
[43] = test system: MDA-MB-435; experiment: Cytotoxicity against human MDA-MB-435 cells by SRB assay; assay type: functional
[44] = test system: SNB-75; experiment: Cytotoxicity against human SNB75 cells by SRB assay; assay type: functional
[45] = Cytotoxicity against human Colon cancer cells by SRB assay; assay type: functional; conditions: Cancer cell lines
[46] = test system: OVCAR-4; experiment: Cytotoxicity against human OVCAR4 cells by SRB assay; assay type: functional
[47] = test system: ACHN; experiment: Cytotoxicity against human ACHN cells by SRB assay; assay type: functional
[48] = Cytotoxicity against human CNS cancer cells by SRB assay; assay type: functional; conditions: Cancer cell lines
[49] = test system: K562; experiment: Cytotoxicity against human K562 cells by SRB assay; assay type: functional
[50] = test system: UACC-257; experiment: Cytotoxicity against human UACC257 cells by SRB assay; assay type: functional
[51] = test system: NCI-H522; experiment: Cytotoxicity against human NCI-H522 cells by SRB assay; assay type: functional
[52] = test system: IGROV-1; experiment: Cytotoxicity against human IGROV1 cells by SRB assay; assay type: functional
[53] = test system: HCT-116; experiment: Cytotoxicity against human HCT116 cells by SRB assay; assay type: functional
[54] = test system: RXF 393; experiment: Cytotoxicity against human RXF393 cells by SRB assay; assay type: functional
[55] = test system: Leukemia cell; experiment: Cytotoxicity against human Leukemia cells by SRB assay; assay type: functional
[56] = Cytotoxicity against human prostate cancer cells by SRB assay; assay type: functional; conditions: Cancer cell lines
[57] = test system: A498; experiment: Cytotoxicity against human A498 cells by SRB assay; assay type: functional
[58] = test system: OVCAR-3; experiment: Cytotoxicity against human OVCAR-3 cells by SRB assay; assay type: functional
[59] = test system: SK-MEL-2; experiment: Cytotoxicity against human SK-MEL-2 cells by SRB assay; assay type: functional
[60] = Cytotoxicity against human HL60(TB) cells by SRB assay; assay type: functional, HL-60(TB); conditions: HL-60
[61] = test system: SN12C; experiment: Cytotoxicity against human SN12C cells by SRB assay; assay type: functional
[62] = test system: HCC 2998; experiment: Cytotoxicity against human HCC2998 cells by SRB assay; assay type: functional
[63] = test system: SF-295; experiment: Cytotoxicity against human SF295 cells by SRB assay; assay type: functional
[64] = test system: MDA-N; experiment: Cytotoxicity against human MDA-N cells by SRB assay; assay type: functional
[65] = test system: RPMI-8226; experiment: Cytotoxicity against human RPMI8226 cells by SRB assay; assay type: functional
[66] = Cytotoxicity against human Hs 578T cells by SRB assay; assay type: functional
[67] = Cytotoxicity against human breast cancer cells by SRB assay; assay type: functional; conditions: Cancer cell lines

SMILES: CC(=O)OC[C@H]1O[C@@H](O[C@@H]2C[C@H]3C(C)(C)[C@H](OC(C)=O)CC[C@]3(C)[C@H]3CCC4=C([C@@H](C)C[C@@H](O)[C@H](O)C(C)(C)O)CC[C@@]4(C)[C@@]32C)[C@H](O)[C@@H](O)[C@@H]1O
- GI50 [1]: 16.6 µM
- TGI [1]: 30.1 µM
- GI50 [2]: 17.4 µM
- GI50 [3]: 17 µM
- TGI [3]: 30.7 µM
- GI50 [4]: 14.5 µM
- GI50 [5]: 19.1 µM
- GI50 [6]: 20.4 µM
- GI50 [7]: 17 µM
- GI50 [8]: 16.6 µM
- GI50 [9]: 2880 nM
- GI50 [10]: 13.2 µM
- TGI [11]: 29.1 µM
- GI50 [12]: 16.6 µM
- TGI [13]: 30.8 µM
- GI50 [14]: 16.6 µM
- GI50 [15]: 17.4 µM
- GI50 [16]: 11.5 µM
- GI50 [17]: 15.8 µM
- GI50 [18]: 6.03 µM
- TGI [19]: 30.3 µM
- GI50 [20]: 17.8 µM
- GI50 [21]: 12.3 µM
- GI50 [22]: 18.2 µM
- GI50 [23]: 16.6 µM
- GI50 [24]: 17.8 µM
- GI50 [25]: 18.2 µM
- GI50 [26]: 14.5 µM
- TGI [27]: 30.4 µM
- GI50 [28]: 15.5 µM
- GI50 [29]: 14.5 µM
- GI50 [30]: 15.8 µM
- GI50 [31]: 15.5 µM
- GI50 [32]: 12.6 µM
- GI50 [33]: 16.2 µM
- GI50 [34]: 22.4 µM
- TGI [34]: 37.1 µM
- GI50 [35]: 17.4 µM
- GI50 [36]: 17 µM
- GI50 [37]: 15.8 µM
- TGI [37]: 30.2 µM
- GI50 [38]: 15.8 µM
- GI50 [39]: 17.8 µM
- GI50 [40]: 12.6 µM
- GI50 [41]: 17 µM
- TGI [41]: 30.8 µM
- GI50 [42]: 16.2 µM
- GI50 [43]: 15.8 µM
- GI50 [44]: 13.2 µM
- TGI [45]: 30.2 µM
- GI50 [46]: 17 µM
- GI50 [47]: 17.8 µM
- TGI [48]: 28.2 µM
- GI50 [49]: 12.6 µM
- GI50 [50]: 16.2 µM
- GI50 [51]: 13.2 µM
- GI50 [52]: 16.2 µM
- GI50 [53]: 14.1 µM
- TGI [53]: 27.2 µM
- GI50 [54]: 14.8 µM
- TGI [55]: 32.2 µM
- TGI [56]: 29.9 µM
- GI50 [57]: 17.4 µM
- GI50 [58]: 14.5 µM
- GI50 [59]: 16.2 µM
- GI50 [60]: 12.9 µM
- GI50 [61]: 16.2 µM
- GI50 [62]: 12 µM
- TGI [62]: 25.2 µM
- GI50 [63]: 17.4 µM
- GI50 [64]: 17 µM
- GI50 [65]: 10.5 µM
- GI50 [66]: 15.1 µM
- TGI [67]: 28.9 µM
